According to patent publication US8187826B2, “Quantitative analysis of in vivo mutation at the Pig-A locus” (Litron Laboratories, Ltd., priority 2008, dated 2012):

How the values were obtained:
[1] = test system: reticulocytes; test: frequency of reticulocytes (% RET) in peripheral blood, flow cytometry, rats; assay type: in vivo; conditions: male Wistar rats, FIG. 5A
Text: These in vivo experiments utilized naïve rats and focused on the development of simple and reproducible methods for staining and analyzing peripheral blood RBCs and RETs for the GPI anchor-deficient phenotype. As reported elsewhere, it was confirmed that the GPI-anchored protein CD59 is highly and stably expressed on RBCs throughout their lifespan in circulation (Hernández-Campo et al., “Quantitative Analysis of the Expression of Glycosylphosphatidylinositol-Anchored Proteins During the Maturation of Different Hematopoietic Cell Compartments of Normal Bone Marrow,” Cytometry 72B:34-42 (2007), which is hereby incorporated by reference in its entirety). […] A second fluorescent reagent, SYTO® 13 dye, was chosen to differentially stain NCEs, RETs, and leukocytes. […] Secondly, it provided better fluorescent resolution between NCEs, RETs and blood leukocytes. The separation of these latter two populations is particularly important, because not all leukocytes express CD59, and these cells can therefore be mistaken for GPI anchor-deficient RBCs if they are not excluded from analysis. […]
The prior three-color staining strategy outlined above has been described in Bryce et al., “In vivo mutation assay based on the endogenous Pig-a locus”, Environ. […] Samples processed in this manner were evaluated with and without the anti-platelet antibody, and virtually identical values were consistently obtained. […]

[2] = test system: GPI anchor-deficient RBCs (Pig-A locus); test: Pig-A mutation assay: frequency of GPI anchor-deficient (mutant phenotype) RBCs, rats; assay type: in vivo, Wistar rats
Text: (§1) These in vivo experiments utilized naïve rats and focused on the development of simple and reproducible methods for staining and analyzing peripheral blood RBCs and RETs for the GPI anchor-deficient phenotype. As reported elsewhere, it was confirmed that the GPI-anchored protein CD59 is highly and stably expressed on RBCs throughout their lifespan in circulation (Hernández-Campo et al., “Quantitative Analysis of the Expression of Glycosylphosphatidylinositol-Anchored Proteins During the Maturation of Different Hematopoietic Cell Compartments of Normal Bone Marrow,” Cytometry 72B:34-42 (2007), which is hereby incorporated by reference in its entirety). […] A second fluorescent reagent, SYTO® 13 dye, was chosen to differentially stain NCEs, RETs, and leukocytes. […] Secondly, it provided better fluorescent resolution between NCEs, RETs and blood leukocytes. The separation of these latter two populations is particularly important, because not all leukocytes express CD59, and these cells can therefore be mistaken for GPI anchor-deficient RBCs if they are not excluded from analysis. Early staining trials also included a third fluorescent reagent, anti-platelet antibody (biotinylated anti-CD61 plus streptavidin-Cy5-PE), which was added to positively identify platelets and prevent platelets from interfering with the RBC-centric analyses.
(§2) The prior three-color staining strategy outlined above has been described in Bryce et al., “In vivo mutation assay based on the endogenous Pig-a locus”, Environ. Molec. Mutagen. 49:256-264 (2008) as well as U.S. Patent Application Publ. […] Samples processed in this manner were evaluated with and without the anti-platelet antibody, and virtually identical values were consistently obtained. […]
(§3) The thresholding technique is based on the fact that the vast majority of Lympholyte® processed blood cells are mature RBCs. […] In this case, it is possible to set the threshold parameter to the nucleic acid dye-associated fluorescence channel (i.e., FL1 for SYTO® 13), as opposed to the more common forward scatter trigger. […]

[3] = test system: reticulocytes; test: frequency of reticulocytes (% RET) in peripheral blood, flow cytometry, mice; assay type: in vivo; conditions: male CD-1 mice, 40 mg/kg/day oral gavage Days 1-3, FIG. 8A
Procedure: (§4) The cross-species potential of this assay is illustrated by this example, whereby male CD-1 mice were treated on three consecutive days (Day 1, 2 and 3) with N-ethyl-N-nitrosourea (ENU) via oral gavage. The dose levels were 0 or 40 mg/kg/day. Blood harvests occurred on Days 4, 15, 30, 45 and 90 (n=5 per time point per dose). Whereas the rat experiments described in Examples 2-4 above were based on serial blood draws, the mouse experiments were not. Rather, each mouse provided only one blood specimen, thereby requiring like-treated groups of animals to generate the data for each time point studied. This was done to eliminate the possible confounding effect that repeat-blood sampling may have had on the results given the low total blood volume associated with this particular small animal model.

[4] = test system: GPI anchor-deficient RETs (Pig-A locus); test: Pig-A mutation assay: frequency of mutant phenotype RETs, mice; assay type: in vivo; conditions: male CD-1 mice, 40 mg/kg/day oral gavage Days 1-3, FIG. 8C
Procedure: as §4

[5] = test system: GPI anchor-deficient RBCs (Pig-A locus); test: Pig-A mutation assay: frequency of mutant phenotype RBCs, mice; assay type: in vivo; conditions: male CD-1 mice, 40 mg/kg/day oral gavage Days 1-3, FIG. 8B
Procedure: as §4

[6] = test system: GPI anchor-deficient RETs (Pig-A locus); test: Pig-A mutation assay: frequency of GPI anchor-deficient (mutant phenotype) RETs, rats; assay type: in vivo, Wistar rats
Text: as §1, §2, §3

Question: How did the “frequency of reticulocytes (% RET)” value ([1]; 20 or 40 mg/kg/day oral gavage Days 1-3, vs vehicle control) turn out when `CCN(N=O)C(N)=O` [ENU, N-ethyl-N-nitrosourea] was run?
Answer: mean % RET are reduced in a dose-dependent manner

Question: And the “frequency of reticulocytes (% RET), rebound effect” value ([1]; high dose group (40 mg/kg/day oral gavage Days 1-3), vs control values)?
Answer: “overshoots” the control values

Question: And the “frequency of mutant phenotype RBCs” value ([2]; male Wistar rats, 1, 5, 10 or 15 mg/kg/day oral gavage on 14 consecutive days, blood Day 23, FIG. 7A)?
Answer: very robust, dose-related increase in mutant cells

Question: What about the “frequency of mutant phenotype (GPI anchor-deficient) RBCs” value ([2]; male Wistar rats, 20 or 40 mg/kg/day oral gavage Days 1-3, Day 15 through Day 90, FIG. 5B) of the same molecule?
Answer: Robust, dose-related increases in mutant cell frequency

Question: And the “day on which maximal mutant RBC frequency is reached” value ([2]; male Wistar rats, 20 or 40 mg/kg/day oral gavage Days 1-3, plateau thereafter, FIG. 5B)?
Answer: ≤ 45 days

Question: And the “frequency of reticulocytes (% RET)” value ([3]; Day 4)?
Answer: significantly reduced

Question: What about the “frequency of reticulocytes (% RET), rebound effect” value ([3]; Day 15, vs control values) of the same molecule?
Answer: “overshoots” the control values

Question: And the “frequency of mutant phenotype RETs” value ([4]; Day 15)?
Answer: greatly elevated

Question: What about the “frequency of mutant phenotype RETs” value ([4]; through Day 90) of the same molecule?
Answer: Robust increases in mutant cell frequency

Question: And the “frequency of mutant phenotype RBCs” value ([5]; by Day 15)?
Answer: increased mutant cell frequencies

Question: And the “day on which maximum mutant RBC frequency is apparent” value ([5]; stable thereafter through Day 90)?
Answer: 30 days

Question: What about the “frequency of mutant phenotype RETs” value ([6]; male Wistar rats, 1, 5, 10 or 15 mg/kg/day oral gavage on 14 consecutive days, blood Day 23, FIG. 7B) of the same molecule?
Answer: very robust, dose-related increase in mutant cells

Question: What about the “day on which maximal or near-maximal mutant RET frequency is reached” value ([6]; male Wistar rats, 20 or 40 mg/kg/day oral gavage Days 1-3, FIG. 5C) of the same molecule?
Answer: 15 days

Question: And the “frequency of mutant phenotype (GPI anchor-deficient) RETs” value ([6]; male Wistar rats, 20 or 40 mg/kg/day oral gavage Days 1-3, evident by Day 15, FIG. 5C)?
Answer: Robust, dose-related increases in mutant cell frequency
